Test results published in the supplement of paper PMC10307832.

Experiments:
Experiment in all cases: relative viability (nuclei count vs DMSO), 5 days (fraction); higher = more cells survive
AZD1208 + Pemetrexed = compound: N[C@@H]1CCCN(c2c(/C=C3\SC(=O)NC3=O)cccc2-c2ccccc2)C1 [AZD1208] + Nc1nc2[nH]cc(CCc3ccc(C(=O)N[C@@H](CCC(=O)O)C(=O)O)cc3)c2c(=O)[nH]1 [Pemetrexed] (partner 0.2 µM)
Outline: (§1)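 For relative viability, nuclei counts in treated wells were divided by those in vehicle wells. Lung cancer cell lines had been pin-tool dosed in 1536-well plates the day after seeding and cultured for 5 days, then fixed and stained in one step (final 0.05% Triton X-100, 1% formaldehyde, 1 ug/ml Hoechst) and imaged at 4×. Doses were one drug alone or a fixed anchor-drug dose plus five library-drug doses (not always all listed) in √10 steps, and values are duplicate-plate medians.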

AZD1208 + Tozasertib = compound: N[C@@H]1CCCN(c2c(/C=C3\SC(=O)NC3=O)cccc2-c2ccccc2)C1 [AZD1208] + Cc1cc(Nc2cc(N3CCN(C)CC3)nc(Sc3ccc(NC(=O)C4CC4)cc3)n2)n[nH]1 [Tozasertib] (partner 0.1 µM)
Outline: as §1

AZD1208 + Foretinib = compound: N[C@@H]1CCCN(c2c(/C=C3\SC(=O)NC3=O)cccc2-c2ccccc2)C1 [AZD1208] + COc1cc2c(Oc3ccc(NC(=O)C4(C(=O)Nc5ccc(F)cc5)CC4)cc3F)ccnc2cc1OCCCN1CCOCC1 [Foretinib] (partner 0.25 µM)
Outline: as §1

XMD14-99 + Pemetrexed = compound: CN1CCN(CC1)C2=CC(=C(C=C2)NC3=NC(=C(S3)C(=O)C4=C(C=CC=C4Cl)Cl)N)OC [XMD14-99] + Nc1nc2[nH]cc(CCc3ccc(C(=O)N[C@@H](CCC(=O)O)C(=O)O)cc3)c2c(=O)[nH]1 [Pemetrexed] (partner 0.2 µM)
Outline: as §1

| Cell Line | relative viability (AZD1208 + Pemetrexed; first compound 0.08 µM) | relative viability (AZD1208 + Pemetrexed; first compound 0.253 µM) | relative viability (AZD1208 + Pemetrexed; first compound 0.8 µM) | relative viability (AZD1208 + Pemetrexed; first compound 2.53 µM) | relative viability (AZD1208 + Pemetrexed; first compound 8 µM) | relative viability (AZD1208 + Tozasertib; first compound 0.08 µM) | relative viability (AZD1208 + Tozasertib; first compound 0.253 µM) | relative viability (AZD1208 + Tozasertib; first compound 0.8 µM) | relative viability (AZD1208 + Tozasertib; first compound 2.53 µM) | relative viability (AZD1208 + Tozasertib; first compound 8 µM) | relative viability (AZD1208 + Foretinib; first compound 0.08 µM) | relative viability (AZD1208 + Foretinib; first compound 0.253 µM) | relative viability (AZD1208 + Foretinib; first compound 0.8 µM) | relative viability (AZD1208 + Foretinib; first compound 2.53 µM) | relative viability (AZD1208 + Foretinib; first compound 8 µM) | relative viability (XMD14-99 + Pemetrexed; first compound 0.08 µM) | relative viability (XMD14-99 + Pemetrexed; first compound 0.8 µM) | relative viability (XMD14-99 + Pemetrexed; first compound 2.53 µM) | relative viability (XMD14-99 + Pemetrexed; first compound 8 µM) |
| --- | --- | --- | --- | --- | --- | --- | --- | --- | --- | --- | --- | --- | --- | --- | --- | --- | --- | --- | --- |
| BEN | 0.877 | 0.525 | 0.568 | 0.612 | 0.558 | 0.507 | 0.414 | 0.385 | 0.374 | 0.435 | 0.609 | 0.602 | 0.47 | 0.571 | 0.459 | 0.747 | 0.794 | 0.845 | 0.492 |
| EMC-BAC-2 | 0.462 | 0.474 | 0.511 | 0.524 | 0.54 | 0.28 | 0.298 | 0.28 | 0.25 | 0.222 | 1.01 | 1.04 | 1 | 1.02 | 0.727 | 0.437 | 0.449 | 0.403 | 0.368 |
| LU99A | 0.198 | 0.237 | 0.233 | 0.198 | 0.205 | 0.288 | 0.304 | 0.276 | 0.3 | 0.203 | 0.707 | 0.882 | 0.782 | 0.82 | 0.611 | 0.199 | 0.174 | 0.191 | 0.156 |
| ABC-1 | – | – | – | – | – | 0.168 | 0.155 | 0.214 | 0.192 | 0.192 | 1.16 | 1.02 | 1.13 | 0.92 | 0.967 | – | – | – | – |
| NCI-H2170 | 0.244 | 0.289 | 0.688 | 0.275 | 0.268 | 0.718 | 0.707 | 0.614 | 0.447 | 0.306 | 1.07 | 1.07 | 1.08 | 1.03 | 0.878 | 0.247 | 0.266 | 0.251 | 0.247 |
| NCI-H1299 | – | – | – | – | – | – | – | – | – | – | 1.11 | 1.08 | 1.08 | 1.14 | 1.07 | – | – | – | – |
| EBC-1 | – | – | – | – | – | – | – | – | – | – | 0.0932 | 0.0985 | 0.0803 | 0.0927 | 0.103 | – | – | – | – |
| NCI-H2405 | 1.01 | 1 | 1.02 | 1.02 | 0.95 | 0.726 | 0.721 | 0.693 | 0.71 | 0.635 | 1.03 | 1 | 0.991 | 1.06 | 0.993 | 1.02 | 1.13 | 1 | 0.654 |
| NCI-H2009 | 1.01 | 1.03 | 0.917 | 1.11 | 1.06 | 0.696 | 0.785 | 0.667 | 0.684 | 0.597 | 1.23 | 1.2 | 1.14 | 1.26 | 1.16 | 1.07 | 1 | 0.947 | 0.997 |
| NCI-H441 | 0.234 | 0.263 | 0.237 | 0.263 | 0.256 | 0.641 | 0.555 | 0.57 | 0.508 | 0.375 | 1.1 | 0.761 | 0.764 | 0.712 | 0.718 | 0.257 | 0.289 | 0.235 | 0.254 |
| PC-14 | 0.125 | 0.132 | 0.14 | 0.153 | 0.165 | 0.554 | 0.55 | 0.467 | 0.503 | 0.463 | 1.02 | 1.06 | 1.06 | 1.04 | 0.999 | 0.148 | 0.138 | 0.115 | 0.131 |
| HARA | 0.251 | 0.206 | 0.292 | 0.282 | 0.227 | 0.11 | 0.0998 | 0.111 | 0.0918 | 0.0796 | 0.905 | 0.709 | 0.827 | 0.539 | 0.804 | 0.21 | 0.29 | 0.265 | 0.237 |
| NCI-H2126 | 0.649 | 0.734 | 0.652 | 0.634 | 0.614 | 0.743 | 0.784 | 0.816 | 0.632 | 0.66 | 1.19 | 0.834 | 0.766 | 1.09 | 0.931 | 0.634 | 0.681 | 0.677 | 0.537 |
| NCI-H1437 | 0.302 | 0.307 | 0.327 | 0.355 | 0.322 | 0.429 | 0.378 | 0.335 | 0.353 | 0.351 | 1.31 | 1.17 | 1.36 | 1.42 | 1.42 | 0.303 | 0.313 | 0.307 | 0.27 |
| NCI-H2342 | 0.869 | 0.749 | 0.699 | 0.738 | 0.568 | 0.454 | 0.499 | 0.453 | 0.418 | 0.421 | 0.922 | 0.946 | 0.934 | 1.02 | 0.801 | 0.785 | 0.748 | 0.815 | 0.762 |
| NCI-H1792 | 0.912 | 1.11 | – | 0.698 | 0.556 | – | – | – | – | – | – | – | – | – | – | 1.03 | 0.72 | 0.68 | 0.529 |
| HCC-44 | 0.636 | 0.592 | 0.62 | 0.688 | 0.639 | 0.876 | 1.04 | 0.877 | 0.896 | 0.866 | – | – | – | – | – | 0.648 | 0.65 | 0.63 | 0.627 |
| A549 | – | – | – | – | – | – | – | – | – | – | 0.808 | 1.05 | 0.824 | 0.927 | 0.708 | – | – | – | – |
| NCI-H1563 | 0.762 | 0.764 | 0.734 | 0.705 | 0.768 | – | – | – | – | – | 1.07 | 1.02 | 0.919 | 0.994 | 0.908 | 0.884 | 0.937 | 0.787 | 0.751 |
| IA-LM | – | – | – | – | – | – | – | – | – | – | 1.07 | 1.09 | 0.924 | 1.14 | 1.05 | – | – | – | – |
| NCI-H1703 | – | – | – | – | – | – | – | – | – | – | 0.268 | 0.333 | 0.275 | 0.301 | 0.335 | – | – | – | – |
| NCI-H1648 | 0.626 | 0.629 | 0.814 | 0.891 | 1.07 | 0.599 | 0.462 | 0.346 | 0.33 | 0.389 | – | – | – | – | – | 0.61 | 0.564 | 0.554 | 0.542 |
